Results as given in US20150141381A1, “TETRACYCLINE COMPOUNDS HAVING TARGET THERAPEUTIC ACTIVITIES” (Paratek Pharmaceuticals, Inc., priority 2001, published 2015).
Like-named read-outs stand apart in the source and are kept apart here.

Legend:
S. aureus RN450 = test: In Vitro Anti-Bacterial Activity Assay (MIC), gram positive; assay type: cell-based; conditions: Staphylococcus aureus, RN450, 18 h
E. coli mL308 225 = test: In Vitro Anti-Bacterial Activity Assay (MIC), gram negative; assay type: cell-based; conditions: Escherichia coli, ML308225, 18 h
[1] = MIC class, Table 3 (Continued), read-out: Gram+ activity
[2] = MIC class, Table 3 (Continued), read-out: Gram− activity
[3] = MIC class, Table 3, read-out: Antibiotic Activity Gram +
[4] = MIC class, Table 3, read-out: Antibiotic Activity Gram −
[5] = gram positive bacteria, read-out: Antibiotic Activity Gram + (MIC)
[6] = gram negative bacteria, read-out: Antibiotic Activity Gram − (MIC)

Row | Structure (SMILES) | MIC (S. aureus RN450; [3]) [µg/mL] | MIC (E. coli mL308 225; [4]) [µg/mL] | MIC (S. aureus RN450; [5]) [µg/mL] | MIC (E. coli mL308 225; [6]) [µg/mL] | also measured
1 | CN(C)[C@@H]1C(O)=C(C(N)=O)C(=O)[C@@]2(O)C(O)=C3C(=O)c4c(O)ccc(-c5ccc(Cl)o5)c4C[C@H]3C[C@@H]12 | – | – | – | – | MIC (S. aureus RN450; [1]): < 4 µg/mL; MIC (E. coli mL308 225; [2]): < 4 µg/mL
2 | COC(=O)CCC(=O)Nc1ccc2c(c1O)C(=O)C1=C(O)[C@]3(O)C(=O)C(C(N)=O)=C(O)[C@@H](N(C)C)[C@@H]3C[C@@H]1C2 [IB] | > 4 | > 4 | – | – | –
3 | CN(C)[C@@H]1C(O)=C(C(N)=O)C(=O)[C@@]2(O)C(O)=C3C(=O)c4c(O)ccc(-c5ccc(CNCCF)cc5)c4C[C@H]3C[C@@H]12 | – | – | < 4 | – | MIC (E. coli mL308 225; read-out: Antibiotic Activity Gram − (MIC)): < 4 µg/mL
4 | CC(=O)Nc1ccc2c(c1O)C(=O)C1=C(O)[C@]3(O)C(=O)C(C(N)=O)=C(O)[C@@H](N(C)C)[C@@H]3C[C@@H]1C2 | – | – | < 4 | > 4 | –
5 | CN(C)c1cc(CNCCc2ccccc2)c(O)c2c1C[C@H]1C[C@H]3C(N(C)C)C(O)=C(C(N)=O)C(=O)[C@@]3(O)C(O)=C1C2=O (stereo partly shown) [EH] | < 4 | < 4 | – | – | –
6 | CC1c2ccc(-c3ccc4c(c3)OCO4)c(O)c2C(=O)C2=C(O)[C@]3(O)C(=O)C(C(N)=O)=C(O)[C@@H](N(C)C)[C@@H]3[C@@H](O)[C@@H]21 (stereo partly shown) | – | – | – | – | MIC (S. aureus RN450; [1]): < 4 µg/mL; MIC (E. coli mL308 225; [2]): < 4 µg/mL
7 | CN(C)c1ccc(-c2cc(C#CC3=CCCCC3)c(O)c3c2C[C@H]2C[C@H]4[C@H](N(C)C)C(O)=C(C(N)=O)C(=O)[C@@]4(O)C(O)=C2C3=O)cc1 [HR] | > 4 | > 4 | – | – | –
8 | CN(C)c1cc(-c2ccc(F)cc2F)c(O)c2c1C[C@H]1C[C@H]3[C@H](N(C)C)C(O)=C(C(N)=O)C(=O)[C@@]3(O)C(O)=C1C2=O | – | – | – | – | MIC (S. aureus RN450; [1]): < 4 µg/mL; MIC (E. coli mL308 225; [2]): < 4 µg/mL
9 | CN(C)c1cc(CNC(=O)c2ccno2)c(O)c2c1C[C@H]1C[C@H]3C(N(C)C)C(O)=C(C(N)=O)C(=O)[C@@]3(O)C(O)=C1C2=O (stereo partly shown) [MB] | < 4 | > 4 | – | – | –
10 | CNCc1cc(CNCC(C)(C)C)c2c(c1O)C(=O)C1=C(O)[C@]3(O)C(=O)C(C(N)=O)=C(O)[C@@H](N(C)C)[C@@H]3C[C@@H]1C2 | – | – | > 4 | > 4 | –
11 | CN(C)c1cc(-c2cccc(N)c2)c(O)c2c1C[C@H]1C[C@H]3[C@H](N(C)C)C(O)=C(C(N)=O)C(=O)[C@@]3(O)C(O)=C1C2=O [AH] | < 4 | > 4 | – | – | –
12 | C[C@H]1c2ccc(NC(=O)Oc3ccc(F)cc3)c(O)c2C(=O)C2=C(O)[C@]3(O)C(=O)C(C(N)=O)=C(O)[C@@H](N(C)C)[C@@H]3[C@@H](O)[C@@H]21 [V] | – | – | – | – | MIC (S. aureus RN450; read-out: Antibiotic Activity Gram +): > 4 µg/mL; MIC (E. coli mL308 225; read-out: Antibiotic Activity Gram −): > 4 µg/mL
13 | CN(C)[C@@H]1C(O)=C(C(N)=O)C(=O)[C@@]2(O)C(O)=C3C(=O)c4c(O)ccc(C(=O)CN5CCOCC5)c4C[C@H]3C[C@@H]12 | – | – | < 4 | > 4 | –
14 | C[C@H]1c2ccc(NC3CCN(Cc4ccccc4)CC3)c(O)c2C(=O)C2=C(O)[C@]3(O)C(=O)C(C(N)=O)=C(O)[C@@H](N(C)C)[C@@H]3[C@@H](O)[C@@H]21 [JK] | < 4 | < 4 | – | – | –
15 | CCC(CC)c1ccc(CCc2ccc(O)c3c2C[C@H]2C[C@H]4[C@H](N(C)C)C(O)=C(C(N)=O)C(=O)[C@@]4(O)C(O)=C2C3=O)cc1 | – | – | – | – | MIC (S. aureus RN450; [1]): < 4 µg/mL; MIC (E. coli mL308 225; [2]): < 4 µg/mL
16 | COC1CCN(Cc2cc(N(C)C)c3c(c2O)C(=O)C2=C(O)[C@]4(O)C(=O)C(C(N)=O)=C(O)[C@@H](N(C)C)[C@@H]4C[C@@H]2C3)CC1 | – | – | < 4 | < 4 | –
17 | CN(C)c1cc(CNC(=O)C(C)(C)C)c(O)c2c1C[C@H]1C[C@H]3[C@H](N(C)C)C(O)=C(C(N)=O)C(=O)[C@@]3(O)C(O)=C1C2=O | – | – | < 4 | > 4 | –
18 | CCN(CC)Cc1cc(N(C)C)c2c(c1O)C(=O)C1=C(O)[C@]3(O)C(=O)C(C(N)=O)=C(O)[C@@H](N(C)C)[C@@H]3C[C@@H]1C2 | – | – | < 4 | > 4 | –
19 | CN(C)c1cc(C#CC2=CCCC2)c(O)c2c1C[C@H]1C[C@H]3[C@H](N(C)C)C(O)=C(C(N)=O)C(=O)[C@@]3(O)C(O)=C1C2=O | – | – | < 4 | < 4 | –
20 | C[C@H]1c2ccc(-c3ccc(C=O)cc3)c(O)c2C(=O)C2=C(O)[C@]3(O)C(=O)C(C(N)=O)=C(O)[C@@H](N(C)C)[C@@H]3[C@@H](O)[C@@H]21 | – | – | < 4 | < 4 | –
21 | CC(C)NCc1ccc(-c2ccc(O)c3c2C[C@H]2C[C@H]4[C@@H](N(C)C)C(O)=C(C(N)=O)C(=O)[C@@]4(O)C(O)=C2C3=O)o1 [HN] | < 4 | < 4 | – | – | –
22 | CCOC(=O)COC1=C(C(N)=O)C(=O)[C@@]2(O)C(O)=C3C(=O)c4c(O)cccc4C[C@H]3C[C@H]2[C@@H]1N(C)C [OR] | > 4 | > 4 | – | – | –
23 | CN(C)[C@@H]1C(O)=C(C(N)=O)C(=O)[C@@]2(O)C(O)=C3C(=O)c4c(O)ccc(-c5cccc([N+](=O)[O-])c5)c4C[C@H]3C[C@@H]12 | – | – | – | – | MIC (S. aureus RN450; [1]): < 4 µg/mL; MIC (E. coli mL308 225; [2]): < 4 µg/mL
